Test results reported in patent US5399543A, “3-[4-(phenylmethoxy)phenyl]-1-substituted-6-haloalkyl-uracil herbicides” (FMC Corporation, priority 1993, dated 1995).

What was measured:
Chickweed [1] = assay: Preemergence herbicidal activity, chickweed; format: in vivo; conditions: Stellaria media, pre-emergence, 0.3 kg/ha, after 17-21 days, read-out: Preemergence herbicidal activity (% control), Chickweed
Procedure: (§1) The 3-[4-(phenylmethoxy)phenyl]-1-substituted-6-haloalkyluracil herbicides of this invention were tested for pre- and postemergence herbicidal activity using a variety of crops and weeds. The test plants included soybean (Glycine max var. Williams), field corn (Zea mays var. Agway 425X), wheat (Triticum aestivum var. Wheaton), morningglory (Ipomea lacunosa or Ipomea hederacea), velvetleaf (Abutilon theophrasti), green foxtail (Setaria viridis), Johnsongrass (Sorghum halepense), blackgrass (Aloepecurus myosuroides), common chickweed (Stellaria media), and common cocklebur (Xanthium pensylvanicum).
(§2) For preemergence testing, two disposable fiber flats (8 cm×15 cm×25 cm) for each rate of application of each candidate herbicide were filled to an approximate depth of 6.5 cm with steam-sterilized sandy loam soil. The soil was leveled and impressed with a template to provide five evenly spaced furrows 13 cm long and 0.5 cm deep in each flat. Seeds of soybean, wheat, corn, green foxtail, and johnsongrass were planted in the furrows of the first flat, and seeds of velvetleaf, morningglory, common chickweed, cocklebur, and blackgrass were planted in the furrows of the second flat. The five-row template was employed to firmly press the seeds into place. A topping soil of equal portions of sand and sandy loam soil was placed uniformly on top of each flat to a depth of approximately 0.5 cm. Flats for postemergence testing were prepared in the same manner except that they were planted 8-12 days prior to the preemergence flats and were placed in a greenhouse and watered, thus allowing the seeds to germinate and the foliage to develop.
(§3) In both pre- and postemergence tests, a stock solution of the candidate herbicide was prepared by dissolving 0.27 g of the compound in 20 mL of water/acetone (50/50) containing 0.5% v/v sorbitan monolaurate. For an application rate of 3000 g/ha of herbicide a 10 mL portion of the stock solution was diluted with water/acetone (50/50) to 45 mL.
(§4) The preemergence flats were initially subjected to a light water spray. The four flats were placed two by two along a conveyor belt (i.e., the two preemergence followed by the two postemergence flats). The conveyor belt fed under a spray nozzle mounted about ten inches above the postemergent foliage. The preemergent flats were elevated on the belt so that the soil surface was at the same level below the spray nozzle as the foliage canopy of the postemergent plants. The spray of herbicidal solution was commenced and once stabilized, the flats were passed under the spray at a speed to receive a coverage equivalent of 1000 L/ha. At this coverage the application rates are those shown in the above table for the individual herbicidal solutions. The preemergence flats were watered immediately thereafter, placed in the greenhouse and watered regularly at the soil surface. The postemergence flats were immediately placed in the greenhouse and not watered until 24 hours after treatment with the test solution. Thereafter they were regularly watered at ground level. After 17-21 days the plants were examined and the phytotoxicity data were recorded.
(§5) Herbicidal activity data at selected application rates are given for various compounds of this invention in Table 2 and Table 3. The test compounds are identified by numbers which correspond to those in Table 1.
(§6) Phytotoxicity data were taken as percent control. Percent control was determined by a method similar to the 0 to 100 rating system disclosed in "Research Methods in Weed Science," 2nd ed., B. Truelove, Ed.; Southern Weed Science Society; Auburn University, Auburn, Ala., 1977.

Velvetleaf [2] = assay: Postemergence herbicidal activity, velvetleaf; format: in vivo; conditions: Abutilon theophrasti, post-emergence, 0.3 kg/ha, after 17-21 days, read-out: Postemergence herbicidal activity (% control), Velvetleaf
Procedure: as §1, §2, §3, §4, §5, §6

Johnsongrass [3] = assay: Postemergence herbicidal activity, johnsongrass; format: in vivo; conditions: Sorghum halepense, post-emergence, 0.3 kg/ha, after 17-21 days, read-out: Postemergence herbicidal activity (% control), Johnsongrass
Procedure: as §1, §2, §3, §4, §5, §6

Wheat [4] = assay: Postemergence herbicidal activity, wheat; format: in vivo, Triticum aestivum var. Wheaton; conditions: Triticum aestivum, post-emergence, 0.3 kg/ha, after 17-21 days, read-out: Postemergence herbicidal activity (% control), Wheat
Procedure: as §1, §2, §3, §4, §5, §6

Corn [5] = assay: Postemergence herbicidal activity, corn; format: in vivo, Zea mays var. Agway 425X; conditions: Zea mays, post-emergence, 0.3 kg/ha, after 17-21 days, read-out: Postemergence herbicidal activity (% control), Corn
Procedure: as §1, §2, §3, §4, §5, §6

Wheat [6] = assay: Preemergence herbicidal activity, wheat; format: in vivo, Triticum aestivum var. Wheaton; conditions: Triticum aestivum, pre-emergence, 0.3 kg/ha, after 17-21 days, read-out: Preemergence herbicidal activity (% control), Wheat
Procedure: as §1, §2, §3, §4, §5, §6

Corn [7] = assay: Preemergence herbicidal activity, corn; format: in vivo, Zea mays var. Agway 425X; conditions: Zea mays, pre-emergence, 0.3 kg/ha, after 17-21 days, read-out: Preemergence herbicidal activity (% control), Corn
Procedure: as §1, §2, §3, §4, §5, §6

Blackgrass [8] = assay: Preemergence herbicidal activity, blackgrass; format: in vivo, Aloepecurus myosuroides; conditions: Alopecurus myosuroides, pre-emergence, 0.3 kg/ha, after 17-21 days, read-out: Preemergence herbicidal activity (% control), Blackgrass
Procedure: as §1, §2, §3, §4, §5, §6

Blackgrass [9] = assay: Postemergence herbicidal activity, blackgrass; format: in vivo, Aloepecurus myosuroides; conditions: Alopecurus myosuroides, post-emergence, 0.3 kg/ha, after 17-21 days, read-out: Postemergence herbicidal activity (% control), Blackgrass
Procedure: as §1, §2, §3, §4, §5, §6

Johnsongrass [10] = assay: Preemergence herbicidal activity, johnsongrass; format: in vivo; conditions: Sorghum halepense, pre-emergence, 0.3 kg/ha, after 17-21 days, read-out: Preemergence herbicidal activity (% control), Johnsongrass
Procedure: as §1, §2, §3, §4, §5, §6

Cocklebur [11] = assay: Preemergence herbicidal activity, cocklebur; format: in vivo, Xanthium pensylvanicum; conditions: Xanthium strumarium, pre-emergence, 0.3 kg/ha, after 17-21 days, read-out: Preemergence herbicidal activity (% control), Cocklebur
Procedure: as §1, §2, §3, §4, §5, §6

Cocklebur [12] = assay: Postemergence herbicidal activity, cocklebur; format: in vivo, Xanthium pensylvanicum; conditions: Xanthium strumarium, post-emergence, 0.3 kg/ha, after 17-21 days, read-out: Postemergence herbicidal activity (% control), Cocklebur
Procedure: as §1, §2, §3, §4, §5, §6

Green foxtail [13] = assay: Postemergence herbicidal activity, green foxtail; format: in vivo; conditions: Setaria viridis, post-emergence, 0.3 kg/ha, after 17-21 days, read-out: Postemergence herbicidal activity (% control), Green foxtail
Procedure: as §1, §2, §3, §4, §5, §6

Soybean [14] = assay: Preemergence herbicidal activity, soybean; format: in vivo, Glycine max var. Williams; conditions: Glycine max, pre-emergence, 0.3 kg/ha, after 17-21 days, read-out: Preemergence herbicidal activity (% control), Soybean
Procedure: as §1, §2, §3, §4, §5, §6

Soybean [15] = assay: Postemergence herbicidal activity, soybean; format: in vivo, Glycine max var. Williams; conditions: Glycine max, post-emergence, 0.3 kg/ha, after 17-21 days, read-out: Postemergence herbicidal activity (% control), Soybean
Procedure: as §1, §2, §3, §4, §5, §6

Morningglory [16] = assay: Preemergence herbicidal activity, morningglory; format: in vivo, Ipomea lacunosa or Ipomea hederacea; conditions: Ipomoea, pre-emergence, 0.3 kg/ha, after 17-21 days, read-out: Preemergence herbicidal activity (% control), Morningglory
Procedure: as §1, §2, §3, §4, §5, §6

Velvetleaf [17] = assay: Preemergence herbicidal activity, velvetleaf; format: in vivo; conditions: Abutilon theophrasti, pre-emergence, 0.3 kg/ha, after 17-21 days, read-out: Preemergence herbicidal activity (% control), Velvetleaf
Procedure: as §1, §2, §3, §4, §5, §6

Chickweed [18] = assay: Postemergence herbicidal activity, chickweed; format: in vivo; conditions: Stellaria media, post-emergence, 0.3 kg/ha, after 17-21 days, read-out: Postemergence herbicidal activity (% control), Chickweed
Procedure: as §1, §2, §3, §4, §5, §6

Green foxtail [19] = assay: Preemergence herbicidal activity, green foxtail; format: in vivo; conditions: Setaria viridis, pre-emergence, 0.3 kg/ha, after 17-21 days, read-out: Preemergence herbicidal activity (% control), Green foxtail
Procedure: as §1, §2, §3, §4, §5, §6

Morningglory [20] = assay: Postemergence herbicidal activity, morningglory; format: in vivo, Ipomea lacunosa or Ipomea hederacea; conditions: Ipomoea, post-emergence, 0.3 kg/ha, after 17-21 days, read-out: Postemergence herbicidal activity (% control), Morningglory
Procedure: as §1, §2, §3, §4, §5, §6

| SMILES | activity at 300 g/ha (Chickweed [1]) | activity at 300 g/ha (Velvetleaf [2]) | activity at 300 g/ha (Johnsongrass [3]) | activity at 300 g/ha (Wheat [4]) | activity at 300 g/ha (Corn [5]) | activity at 300 g/ha (Wheat [6]) | activity at 300 g/ha (Corn [7]) | activity at 300 g/ha (Blackgrass [8]) | activity at 300 g/ha (Blackgrass [9]) | activity at 300 g/ha (Johnsongrass [10]) | activity at 300 g/ha (Cocklebur [11]) | activity at 300 g/ha (Cocklebur [12]) | activity at 300 g/ha (Green foxtail [13]) | activity at 300 g/ha (Soybean [14]) | activity at 300 g/ha (Soybean [15]) | activity at 300 g/ha (Morningglory [16]) | activity at 300 g/ha (Velvetleaf [17]) | activity at 300 g/ha (Chickweed [18]) | activity at 300 g/ha (Green foxtail [19]) | activity at 300 g/ha (Morningglory [20]) |
| --- | --- | --- | --- | --- | --- | --- | --- | --- | --- | --- | --- | --- | --- | --- | --- | --- | --- | --- | --- | --- |
| Cn1c(C(F)(F)F)cc(=O)n(-c2ccc(OCc3ccc(C(F)(F)F)cc3)cc2)c1=O [Compound 22] | 100% | 40% | 80% | 20% | 20% | 0% | 30% | 15% | 30% | 70% | 50% | 40% | 90% | 90% | 50% | 90% | 100% | 15% | 100% | 95% |
| COc1ccccc1COc1ccc(-n2c(=O)cc(C(F)(F)F)n(C)c2=O)cc1 [Compound 40] | 80% | 100% | 90% | 20% | 50% | 20% | 75% | 30% | 10% | 100% | 20% | 100% | 100% | 50% | 90% | 100% | 100% | 15% | 100% | 90% |
| Cn1c(C(F)(F)F)cc(=O)n(-c2ccc(OCc3ccc(Cl)c(Cl)c3)cc2)c1=O [Compound 41] | 95% | 100% | 35% | 0% | 25% | 0% | 0% | 20% | 0% | 20% | 20% | 100% | 45% | 40% | 85% | 80% | 100% | 85% | 95% | 100% |
